Experimental findings from patent US6653321B1, “Naphthylsulfonic acids and related compounds as glucose uptake agonists” (Telik, Inc., priority 1999, dated 2003) are described below.

In this experiment the target is T1, β-kinase domain of the human insulin receptor (CKD) (Homo sapiens, UniProt P06213).
T1 construct: The complete β-kinase domain of the human insulin receptor (CKD); made in house
As to the kind of experiment: 32P-Cytoplasmic Kinase Domain (CKD) autophosphorylation assay. The class given is biochemical. The note with it: 32P incorporated into CKD band, percentage of the vehicle (DMSO) level; 10 minutes at room temperature; compound concentration not given. On the procedure:
The complete β-kinase domain of the human insulin receptor (CKD) was expressed in, and purified from, baculovirus. CKD (4.0 μg/mL), in a solution of 50 mM Tris.HCl, 2 mM MnCl2, 10 mM MgCl2 (50 μl final volume), was combined with […] ATP, and 5 μCi ^32P-ATP (3000 Ci/mmol.). A test compound, or the vehicle (DMSO), was added to a final DMSO concentration of 1%. The mixture was incubated for 10 minutes at room temperature. The reaction was terminated by the addition of 10 μl of 200 mM EDTA. A 30 μl volume was removed, mixed with 5 μl of 6×Laemmeli sodium dodecyl sulfate (SDS) treatment buffer, and heated to 94° C. for 5 minutes. A 20 μl aliquot was then run on an SDS-PAGE gel. The radioactivity incorporated into the CKD band is quantified by phosphorimaging of the gel, or scintillation counting of the excised bands.
The potency of a compound for increasing phosphorylation is expressed as a percentage of the vehicle level.

T1 sequence (P06213 980-1382 limits assumed): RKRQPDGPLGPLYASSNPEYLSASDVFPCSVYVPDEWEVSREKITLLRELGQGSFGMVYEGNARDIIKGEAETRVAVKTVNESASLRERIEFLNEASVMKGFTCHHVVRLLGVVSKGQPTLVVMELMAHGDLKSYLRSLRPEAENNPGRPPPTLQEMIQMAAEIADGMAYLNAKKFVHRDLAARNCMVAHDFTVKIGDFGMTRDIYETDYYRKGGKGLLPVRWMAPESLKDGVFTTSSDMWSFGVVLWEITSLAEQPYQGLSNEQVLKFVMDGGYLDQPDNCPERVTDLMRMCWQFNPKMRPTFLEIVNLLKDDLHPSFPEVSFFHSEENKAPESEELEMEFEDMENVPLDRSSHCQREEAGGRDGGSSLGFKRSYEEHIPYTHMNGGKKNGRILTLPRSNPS

On to `Cc1cc(C)c(S(=O)(=O)Nc2cc(C(=O)Nc3cccc4cc(S(=O)(=O)O)ccc34)cc(C(=O)Nc3cccc4cc(S(=O)(=O)O)ccc34)c2)c(C)c1` [Compound 55, 5-[(3-{[(2,4,6-trimethylphenyl)sulfonyl]amino}-5-[N-(6-sulfonaphthyl)carbamoyl]phenyl)carbonylamino]naphthalene-2-sulfonic acid], for which the “Activity (% Control)” value was found to be 121.6 % Control. To `O=C(O)c1cccc(C(=O)Nc2cc(C(=O)Nc3cccc4cc(S(=O)(=O)O)ccc34)cc(C(=O)Nc3cccc4cc(S(=O)(=O)O)ccc34)c2)c1` [Compound 30, 3-(N-{3,5-bis[N-(6-sulfonaphthyl)carbamoyl]phenyl}carbamoyl)benzoic acid] belongs 84.1 % Control; to `O=C(Nc1ccccc1)Nc1cc(C(=O)Nc2cccc3cc(S(=O)(=O)O)ccc23)cc(C(=O)Nc2cccc3cc(S(=O)(=O)O)ccc23)c1` [Compound 66, 5-({3-[(phenylamino)carbonylamino]-5-[N-(6-sulfonaphthyl)carbamoyl]phenyl}carbonylamino)naphthalene-2-sulfonic acid], 115.5 % Control; to `O=C(Nc1cccc2cc(S(=O)(=O)O)ccc12)c1cc(NS(=O)(=O)c2ccc3ccccc3c2)cc(C(=O)Nc2cccc3cc(S(=O)(=O)O)ccc23)c1` [Compound 49, 5-({3-[(2-naphthylsulfonyl)amino]-5-[N-(6-sulfonaphthyl)carbamoyl]phenyl}carbonylamino)naphthalene-2-sulfonic acid], 109.3 % Control. To `O=C(Nc1cccc2cc(S(=O)(=O)O)ccc12)c1cc(NC(=O)c2c(Cl)ccc(Cl)c2C(=O)O)cc(C(=O)Nc2cccc3cc(S(=O)(=O)O)ccc23)c1` [Compound 20] belongs 84.9 % Control. As for `O=C(Cc1ccccc1)Nc1cc(C(=O)Nc2cccc3cc(S(=O)(=O)O)ccc23)cc(C(=O)Nc2cccc3cc(S(=O)(=O)O)ccc23)c1` [Compound 37, 5-({3-(2-phenylacetylamino)-5-[N-(6-sulfonaphthyl)carbamoyl]phenyl}carbonylamino)naphthalene-2-sulfonic acid], the figure is 113.2 % Control; as for `Cc1ccc(NC(=O)CCC(=O)Nc2cc(C(=O)Nc3cccc4cc(S(=O)(=O)O)ccc34)cc(C(=O)Nc3cccc4cc(S(=O)(=O)O)ccc34)c2)cc1` [Compound 42, 5-[(3-{3-[N-(4-methylphenyl)carbamoyl]propanoylamino}-5-[N-(6-sulfonaphthyl)carbamoyl]phenyl)carbonylamino]naphthalene-2-sulfonic acid], 116.7 % Control. Take `Cc1cccc(NC(=O)Nc2cc(C(=O)Nc3cccc4cc(S(=O)(=O)O)ccc34)cc(C(=O)Nc3cccc4cc(S(=O)(=O)O)ccc34)c2)c1` [Compound 61, 5-[(3-{[(3-methylphenyl)amino]carbonylamino}-5-[N-(6-sulfonaphthyl)carbamoyl]phenyl)carbonylamino]naphthalene-2-sulfonic acid]: the “Activity (% Control)” value amounted to 114.6 % Control. To `COc1ccc(CC(=O)Nc2cc(C(=O)Nc3cccc4cc(S(=O)(=O)O)ccc34)cc(C(=O)Nc3cccc4cc(S(=O)(=O)O)ccc34)c2)cc1` [Compound 41, 5-({3-[2-(4-methoxyphenyl)acetylamino]-5-[N-(6-sulfonaphthyl)carbamoyl]phenyl}carbonylamino)naphthalene-2-sulfonic acid] belongs 136.6 % Control.

Regarding `O=C(Nc1cc(C(=O)Nc2cccc3cc(S(=O)(=O)O)ccc23)cc(C(=O)Nc2cccc3cc(S(=O)(=O)O)ccc23)c1)Nc1ccccc1Cl` [Compound 59, 5-[(3-{[(2-chlorophenyl)amino]carbonylamino}-5-[N-(6-sulfonaphthyl)carbamoyl]phenyl)carbonylamino]naphthalene-2-sulfonic acid], the “Activity (% Control)” value is reported as 120.4 % Control. As for `Cc1ccccc1NC(=O)Nc1cc(C(=O)Nc2cccc3cc(S(=O)(=O)O)ccc23)cc(C(=O)Nc2cccc3cc(S(=O)(=O)O)ccc23)c1` [Compound 60, 5-[(3-{[(2-methylphenyl)amino]carbonylamino}-5-[N-(6-sulfonaphthyl)carbamoyl]phenyl)carbonylamino]naphthalene-2-sulfonic acid], the figure is 97.5 % Control; as for `O=C(Nc1cccc2cc(S(=O)(=O)O)ccc12)c1cc(NC(=O)c2cccc3ccccc23)cc(C(=O)Nc2cccc3cc(S(=O)(=O)O)ccc23)c1` [Compound 25, 5-({3-(1-naphthylcarbonylamino)-5-[N-(6-sulfonaphthyl)carbamoyl]phenyl}carbonylamino)naphthalene-2-sulfonic acid], 83.7 % Control. On to `O=C(Nc1cccc2cc(S(=O)(=O)O)ccc12)c1cc(NS(=O)(=O)c2ccc(F)cc2)cc(C(=O)Nc2cccc3cc(S(=O)(=O)O)ccc23)c1` [Compound 51, 5-[(3-{[(4-fluorophenyl)sulfonyl]amino}-5-[N-(6-sulfonaphthyl)carbamoyl]phenyl)carbonylamino]naphthalene-2-sulfonic acid], for which the “Activity (% Control)” value is on record as 133.0 % Control. As for `O=C(Nc1ccc(Cl)cc1)Nc1cc(C(=O)Nc2cccc3cc(S(=O)(=O)O)ccc23)cc(C(=O)Nc2cccc3cc(S(=O)(=O)O)ccc23)c1` [Compound 58, 5-[(3-{[(4-chlorophenyl)amino]carbonylamino}-5-[N-(6-sulfonaphthyl)carbamoyl]phenyl)carbonylamino]naphthalene-2-sulfonic acid], the figure is 106.4 % Control.

With `Cc1ccc(CC(=O)Nc2cc(C(=O)Nc3cccc4cc(S(=O)(=O)O)ccc34)cc(C(=O)Nc3cccc4cc(S(=O)(=O)O)ccc34)c2)cc1` [Compound 43, 5-({3-[2-(4-methylphenyl)acetylamino]-5-[N-(6-sulfonaphthyl)carbamoyl]phenyl}carbonylamino)naphthalene-2-sulfonic acid], the “Activity (% Control)” value is recorded as 124.2 % Control. Turning to `N[C@@H](CC(=O)O)C(=O)Nc1cc(C(=O)Nc2cccc3cc(S(=O)(=O)O)ccc23)cc(C(=O)Nc2cccc3cc(S(=O)(=O)O)ccc23)c1` [Compound 26, (3S)-3-amino-3-(N-{3,5-bis[N-(6-sulfonaphthyl)carbamoyl]phenyl}carbamoyl)propanoic acid], the “Activity (% Control)” value is reported as 91.4 % Control. To `O=C(O)CCC(=O)Nc1cc(C(=O)Nc2cccc3cc(S(=O)(=O)O)ccc23)cc(C(=O)Nc2cccc3cc(S(=O)(=O)O)ccc23)c1` [Compound 32, 3-(N-{3,5-bis[N-(6-sulfonaphthyl)carbamoyl]phenyl}carbamoyl)propanoic acid] belongs 109.9 % Control. As for `O=C(Nc1cccc2cc(S(=O)(=O)O)ccc12)c1cc(NC(=O)c2ccccc2S(=O)(=O)O)cc(C(=O)Nc2cccc3cc(S(=O)(=O)O)ccc23)c1` [Compound 29, 5-({5-[N-(6-sulfonaphthyl)carbamoyl]-3-[(2-sulfophenyl)carbonylamino]phenyl}carbonylamino)naphthalene-2-sulfonic acid], the figure is 75.6 % Control; as for `O=C(Nc1cccc2cc(S(=O)(=O)O)ccc12)c1cc(NS(=O)(=O)c2ccccc2)cc(C(=O)Nc2cccc3cc(S(=O)(=O)O)ccc23)c1` [Compound 48, 5-({3-[(phenylsulfonyl)amino]-5-[N-(6-sulfonaphthyl)carbamoyl]phenyl}carbonylamino)naphthalene-2-sulfonic acid], 114.2 % Control. To `O=C(Cc1cccc(Cl)c1)Nc1cc(C(=O)Nc2cccc3cc(S(=O)(=O)O)ccc23)cc(C(=O)Nc2cccc3cc(S(=O)(=O)O)ccc23)c1` [Compound 44, 5-({3-[2-(3-chlorophenyl)acetylamino]-5-[N-(6-sulfonaphthyl)carbamoyl]phenyl}carbonylamino)naphthalene-2-sulfonic acid] belongs 124.8 % Control; to `O=C(Nc1cccc(Cl)c1)Nc1cc(C(=O)Nc2cccc3cc(S(=O)(=O)O)ccc23)cc(C(=O)Nc2cccc3cc(S(=O)(=O)O)ccc23)c1` [Compound 57, 5-[(3-{[(3-chlorophenyl)amino]carbonylamino}-5-[N-(6-sulfonaphthyl)carbamoyl]phenyl)carbonylamino]naphthalene-2-sulfonic acid], 109.6 % Control; to `O=C(Nc1cc(C(=O)Nc2cccc3cc(S(=O)(=O)O)ccc23)cc(C(=O)Nc2cccc3cc(S(=O)(=O)O)ccc23)c1)c1ccc2ccccc2c1` [Compound 24, 5-({3-(2-naphthylcarbonylamino)-5-[N-(6-sulfonaphthyl)carbamoyl]phenyl}carbonylamino)naphthalene-2-sulfonic acid], 89.6 % Control.

With `COc1ccc(S(=O)(=O)Nc2cc(C(=O)Nc3cccc4cc(S(=O)(=O)O)ccc34)cc(C(=O)Nc3cccc4cc(S(=O)(=O)O)ccc34)c2)cc1` [Compound 52, 5-[(3-{[(4-methoxyphenyl)sulfonyl]amino}-5-[N-(6-sulfonaphthyl)carbamoyl]phenyl)carbonylamino]naphthalene-2-sulfonic acid], the “Activity (% Control)” value stood at 111.1 % Control. As for `COc1cccc(NC(=O)Nc2cc(C(=O)Nc3cccc4cc(S(=O)(=O)O)ccc34)cc(C(=O)Nc3cccc4cc(S(=O)(=O)O)ccc34)c2)c1` [Compound 64, 5-[(3-{[(3-methoxyphenyl)amino]carbonylamino}-5-[N-(6-sulfonaphthyl)carbamoyl]phenyl)carbonylamino]naphthalene-2-sulfonic acid], the figure is 58.3 % Control.
